Measurements: ChEMBL document CHEMBL4414672, “Synthesis of certain benzothieno[3,2-d]pyrimidine derivatives as a selective SIRT2 inhibitors” (Eur J Med Chem, 2020)

Tests used:
Format in all cases: functional
CCRF-CEM = experiment: Growth inhibition of human CCRF-CEM cells at 10^-5 M incubated for 48 hrs by sulforhodamine B assay; conditions: read-out: GI
HL-60(TB) = experiment: Growth inhibition of human HL-60(TB) cells at 10^-5 M incubated for 48 hrs by sulforhodamine B assay; conditions: HL-60, 48 h, read-out: GI
MOLT-4 = experiment: Growth inhibition of human MOLT4 cells at 10^-5 M incubated for 48 hrs by sulforhodamine B assay; conditions: MOLT-4, 48 h, read-out: GI
A549 = experiment: Growth inhibition of human A549/ATCC cells at 10^-5 M incubated for 48 hrs by sulforhodamine B assay; conditions: A549, 48 h, read-out: GI
EKVX = experiment: Growth inhibition of human EKVX cells at 10^-5 M incubated for 48 hrs by sulforhodamine B assay; conditions: read-out: GI
HOP-62 = experiment: Growth inhibition of human HOP62 cells at 10^-5 M incubated for 48 hrs by sulforhodamine B assay; conditions: HOP-62, 48 h, read-out: GI
NCI-H226 = experiment: Growth inhibition of human NCI-H226 cells at 10^-5 M incubated for 48 hrs by sulforhodamine B assay; conditions: NCI-H226, 48 h, read-out: GI
NCI-H460 = experiment: Growth inhibition of human NCI-H460 cells at 10^-5 M incubated for 48 hrs by sulforhodamine B assay; conditions: NCI-H460, 48 h, read-out: GI
NCI-H522 = experiment: Growth inhibition of human NCI-H522 cells at 10^-5 M incubated for 48 hrs by sulforhodamine B assay; conditions: NCI-H522, 48 h, read-out: GI
COLO 205 = experiment: Growth inhibition of human COLO205 cells at 10^-5 M incubated for 48 hrs by sulforhodamine B assay; conditions: COLO 205, 48 h, read-out: GI
HCC 2998 = experiment: Growth inhibition of human HCC2998 cells at 10^-5 M incubated for 48 hrs by sulforhodamine B assay; conditions: HCC 2998, 48 h, read-out: GI
HCT-116 = experiment: Growth inhibition of human HCT116 cells at 10^-5 M incubated for 48 hrs by sulforhodamine B assay; conditions: HCT-116, 48 h, read-out: GI
HCT-15 = experiment: Growth inhibition of human HCT15 cells at 10^-5 M incubated for 48 hrs by sulforhodamine B assay; conditions: HCT-15, 48 h, read-out: GI
HT-29 = experiment: Growth inhibition of human HT-29 cells at 10^-5 M incubated for 48 hrs by sulforhodamine B assay; conditions: HT-29, 48 h, read-out: GI
KM12 = experiment: Growth inhibition of human KM12 cells at 10^-5 M incubated for 48 hrs by sulforhodamine B assay; conditions: KM12, 48 h, read-out: GI
SW-620 = experiment: Growth inhibition of human SW620 cells at 10^-5 M incubated for 48 hrs by sulforhodamine B assay; conditions: SW-620, 48 h, read-out: GI
SF-268 = experiment: Growth inhibition of human SF268 cells at 10^-5 M incubated for 48 hrs by sulforhodamine B assay; conditions: SF-268, 48 h, read-out: GI
SF-295 = experiment: Growth inhibition of human SF295 cells at 10^-5 M incubated for 48 hrs by sulforhodamine B assay; conditions: SF-295, 48 h, read-out: GI
SNB-75 = experiment: Growth inhibition of human SNB75 cells at 10^-5 M incubated for 48 hrs by sulforhodamine B assay; conditions: SNB-75, 48 h, read-out: GI
U-251 = experiment: Growth inhibition of human U251 cells at 10^-5 M incubated for 48 hrs by sulforhodamine B assay; conditions: U-251, 48 h, read-out: GI
LOX IMVI = experiment: Growth inhibition of human LOXIMVI cells at 10^-5 M incubated for 48 hrs by sulforhodamine B assay; conditions: read-out: GI
MDA-MB-435 = experiment: Growth inhibition of human MDA-MB-435 cells at 10^-5 M incubated for 48 hrs by sulforhodamine B assay; conditions: MDA-MB-435, 48 h, read-out: GI
SK-MEL-28 = experiment: Growth inhibition of human SK-MEL-28 cells at 10^-5 M incubated for 48 hrs by sulforhodamine B assay; conditions: SK-MEL-28, 48 h, read-out: GI
SK-MEL-5 = experiment: Growth inhibition of human SK-MEL-5 cells at 10^-5 M incubated for 48 hrs by sulforhodamine B assay; conditions: SK-MEL-5, 48 h, read-out: GI
UACC-257 = experiment: Growth inhibition of human UACC257 cells at 10^-5 M incubated for 48 hrs by sulforhodamine B assay; conditions: UACC-257, 48 h, read-out: GI
IGROV-1 = experiment: Growth inhibition of human IGROV1 cells at 10^-5 M incubated for 48 hrs by sulforhodamine B assay; conditions: IGROV-1, 48 h, read-out: GI
OVCAR-4 = experiment: Growth inhibition of human OVCAR4 cells at 10^-5 M incubated for 48 hrs by sulforhodamine B assay; conditions: OVCAR-4, 48 h, read-out: GI
OVCAR-5 = experiment: Growth inhibition of human OVCAR5 cells at 10^-5 M incubated for 48 hrs by sulforhodamine B assay; conditions: OVCAR-5, 48 h, read-out: GI
NCI/ADR-RES = experiment: Growth inhibition of human NCI/ADR-RES cells at 10^-5 M incubated for 48 hrs by sulforhodamine B assay; conditions: read-out: GI
786-0 = experiment: Growth inhibition of human 786-0 cells at 10^-5 M incubated for 48 hrs by sulforhodamine B assay; conditions: 786-0, 48 h, read-out: GI
ACHN = experiment: Growth inhibition of human ACHN cells at 10^-5 M incubated for 48 hrs by sulforhodamine B assay; conditions: read-out: GI
CAKI-1 = experiment: Growth inhibition of human Caki1 cells at 10^-5 M incubated for 48 hrs by sulforhodamine B assay; conditions: CAKI-1, 48 h, read-out: GI
UO-31 = experiment: Growth inhibition of human UO31 cells at 10^-5 M incubated for 48 hrs by sulforhodamine B assay; conditions: UO-31, 48 h, read-out: GI
DU-145 = experiment: Growth inhibition of human DU145 cells at 10^-5 M incubated for 48 hrs by sulforhodamine B assay; conditions: DU-145, 48 h, read-out: GI
MCF7 = experiment: Growth inhibition of human MCF7 cells at 10^-5 M incubated for 48 hrs by sulforhodamine B assay; conditions: MCF7, 48 h, read-out: GI
Hs-578T = experiment: Growth inhibition of human Hs 578T cells at 10^-5 M incubated for 48 hrs by sulforhodamine B assay; conditions: read-out: GI
BT-549 = experiment: Growth inhibition of human BT549 cells at 10^-5 M incubated for 48 hrs by sulforhodamine B assay; conditions: BT-549, 48 h, read-out: GI
MDA-MB-468 = experiment: Growth inhibition of human MDA-MB-468 cells at 10^-5 M incubated for 48 hrs by sulforhodamine B assay; conditions: MDA-MB-468, 48 h, read-out: GI

| Structure (SMILES) | inhibition of growth at 10 µM (CCRF-CEM) | inhibition of growth at 10 µM (HL-60(TB)) | inhibition of growth at 10 µM (MOLT-4) | inhibition of growth at 10 µM (A549) | inhibition of growth at 10 µM (EKVX) | inhibition of growth at 10 µM (HOP-62) | inhibition of growth at 10 µM (NCI-H226) | inhibition of growth at 10 µM (NCI-H460) | inhibition of growth at 10 µM (NCI-H522) | inhibition of growth at 10 µM (COLO 205) | inhibition of growth at 10 µM (HCC 2998) | inhibition of growth at 10 µM (HCT-116) | inhibition of growth at 10 µM (HCT-15) | inhibition of growth at 10 µM (HT-29) | inhibition of growth at 10 µM (KM12) | inhibition of growth at 10 µM (SW-620) | inhibition of growth at 10 µM (SF-268) | inhibition of growth at 10 µM (SF-295) | inhibition of growth at 10 µM (SNB-75) | inhibition of growth at 10 µM (U-251) | also measured |
| --- | --- | --- | --- | --- | --- | --- | --- | --- | --- | --- | --- | --- | --- | --- | --- | --- | --- | --- | --- | --- | --- |
| O=C1Nc2c(sc3ccc(Cl)cc23)C(c2cccc([N+](=O)[O-])c2)N1 (centres undefined) | -13.9% | 1.94% | 11% | 1.5% | 25.3% | 8.74% | 17.5% | 3.38% | 9.73% | -1.33% | -3.91% | 5.37% | -4.66% | -3% | 3.73% | -3.52% | 6.35% | 1.41% | 22.8% | 6.51% | inhibition of growth at 10 µM (LOX IMVI): 4.86%; inhibition of growth at 10 µM (MDA-MB-435): -2.51%; inhibition of growth at 10 µM (SK-MEL-28): -5.57%; inhibition of growth at 10 µM (SK-MEL-5): 2.85%; inhibition of growth at 10 µM (UACC-257): 0.85%; inhibition of growth at 10 µM (IGROV-1): 15.6%; inhibition of growth at 10 µM (OVCAR-4): 7.21%; inhibition of growth at 10 µM (OVCAR-5): 0.73%; inhibition of growth at 10 µM (NCI/ADR-RES): 6.5%; inhibition of growth at 10 µM (786-0): 4.42%; inhibition of growth at 10 µM (ACHN): 9.21%; inhibition of growth at 10 µM (CAKI-1): 20.3%; inhibition of growth at 10 µM (UO-31): 35.2%; inhibition of growth at 10 µM (DU-145): -4.61%; inhibition of growth at 10 µM (MCF7): 21.8%; inhibition of growth at 10 µM (Hs-578T): 3.78%; inhibition of growth at 10 µM (BT-549): 7.02%; inhibition of growth at 10 µM (MDA-MB-468): 8.51% |
| O=[N+]([O-])c1cccc(C2c3sc4ccc(Cl)cc4c3N=C3NN=C(c4cccc(F)c4)N32)c1 (centres undefined) | -19.6% | 2.97% | 13% | 2.2% | 14.8% | 14.2% | 14% | 13.4% | 7.14% | -6.34% | -6.34% | 2.49% | 0.97% | -7.53% | 2.47% | -3.74% | 2.25% | 2.31% | 6.3% | -1.33% | inhibition of growth at 10 µM (LOX IMVI): 0.5%; inhibition of growth at 10 µM (MDA-MB-435): -11.2%; inhibition of growth at 10 µM (SK-MEL-28): -15.4%; inhibition of growth at 10 µM (SK-MEL-5): 4.01%; inhibition of growth at 10 µM (UACC-257): -6.09%; inhibition of growth at 10 µM (IGROV-1): 21.3%; inhibition of growth at 10 µM (OVCAR-4): 0.57%; inhibition of growth at 10 µM (OVCAR-5): -2.63%; inhibition of growth at 10 µM (NCI/ADR-RES): -2.63%; inhibition of growth at 10 µM (786-0): -1.01%; inhibition of growth at 10 µM (ACHN): 11.4%; inhibition of growth at 10 µM (CAKI-1): 21.9%; inhibition of growth at 10 µM (UO-31): 41.4%; inhibition of growth at 10 µM (DU-145): 11.3%; inhibition of growth at 10 µM (MCF7): 24.4%; inhibition of growth at 10 µM (Hs-578T): 1.64%; inhibition of growth at 10 µM (BT-549): -8.29%; inhibition of growth at 10 µM (MDA-MB-468): -20.8% |
| CCOC(=O)CSC1=Nc2c(sc3ccc(Cl)cc23)C(c2cccc([N+](=O)[O-])c2)N1 (centres undefined) | -8.55% | 3.55% | 14.6% | 2.51% | 15.9% | 19.6% | 8.28% | -0.74% | 4.34% | -3.41% | -16.9% | 3.88% | -2.2% | -15.9% | -0.19% | -4.96% | 3.8% | -0.53% | 11.3% | 3.38% | inhibition of growth at 10 µM (LOX IMVI): 0.14%; inhibition of growth at 10 µM (MDA-MB-435): -10.6%; inhibition of growth at 10 µM (SK-MEL-28): -14%; inhibition of growth at 10 µM (SK-MEL-5): 3.95%; inhibition of growth at 10 µM (UACC-257): 2.03%; inhibition of growth at 10 µM (IGROV-1): 21.6%; inhibition of growth at 10 µM (OVCAR-4): -4.53%; inhibition of growth at 10 µM (OVCAR-5): -1.2%; inhibition of growth at 10 µM (NCI/ADR-RES): 1.65%; inhibition of growth at 10 µM (786-0): -2.24%; inhibition of growth at 10 µM (ACHN): 6.61%; inhibition of growth at 10 µM (CAKI-1): 16.5%; inhibition of growth at 10 µM (UO-31): 44.7%; inhibition of growth at 10 µM (DU-145): -8.66%; inhibition of growth at 10 µM (MCF7): 20.1%; inhibition of growth at 10 µM (Hs-578T): -3.04%; inhibition of growth at 10 µM (BT-549): -12.4%; inhibition of growth at 10 µM (MDA-MB-468): -24.4% |
